The source of these data is patent US20130040882A1, “USE OF FIBROBLAST GROWTH FACTOR FRAGMENTS” (NOVARTIS AG, priority 2003, published 2013).

Test [1] has as its system transcript abundance in organs. The experiment in a line: Salmon calcitonin/PTS893 monkey study: multiorgan gene expression profiling (HG-U95Av2 arrays). The arrangement: key: B = bone; K = kidney; M = muscle; P = pituitary; L = liver; T = trachea. The format is in vivo, cynomolgus monkeys (Macaca fascicularis). The protocol:
A set of tissues was selected for gene expression profiling. These set included samples from kidney, bone, muscle, duodenum, pituitary and liver.
HG-U95Av2 GeneChip® expression probe arrays (Affymetrix, Santa Clara Calif. USA) were used. […] Workstation 400 (Affymetrix).
Data analysis was performed with the Silicon Genetics software package GeneSpring version 4.2.1 and 5. Average difference values below 20 were set to 20.
The threshold range for considering as up or down regulation was determined within the context of the biological interpretation of the study.
Increase and decrease reported here refer to transcript abundance, unless specifically stated.

For a further test, the system named is selected transcripts. The experiment in a line: Salmon calcitonin/PTS893 monkey study: real-time PCR of selected transcripts. The test is classed as in vivo, cynomolgus monkeys (Macaca fascicularis). As to conditions: normalized to β-actin. An excerpt:
Based on the DNA microarray data a set of transcripts was chosen for quantitative analysis by real time-PCR(RT-PCR).
Briefly, the method exploits the SyBr Green dye which intercalates into double stranded DNA. Accumulation of PCR products is detected directly by monitoring the increase in fluorescence of the SyBr Green dye. Reactions are characterised by the point in time during cycling when amplification of a PCR product is first detected rather than the amount of PCR product accumulated after a fixed number of cycles. The higher the starting copy number of nucleic acid target, the sooner a significant increase in fluorescence is observed.
From each RNA sample, cDNA was made using an Applied Biosystem kit (Applied Biosystems # N808-0234) following the recommendation of the manufacturer. The PCR mixture was prepared using the SyBr Green Universal PCR Master Mix (Applied Biosystems #4309155) as follows: 5 μl cDNA template, 400 nM of each primer, 0.2 mM deoxynucleotide triphosphates, 1 mM MgC12 and 0.5 U Taq DNA polymerase, 5 μl SyBr Green PCR buffer and RNase free water up to a final volume of 50 μl. The PCR was performed using the ABI Prism 7700 Sequence Detection System, after a step at 95° C. for 10 min, the step-cycle program was performed for a total of 40 cycles as follows: 95° C. for 30 s, 60° C. for 1 min. A negative control was included: PCR reaction mixture with water in place of the cDNA sample.
The initial template concentration was determined based on the threshold cycle. […] Quantification was performed by calculating the unknown target concentration relative to an absolute standard and by normalizing to a validated endogenous control such as a housekeeping gene (β-actin). Results are presented as percentage of control, once the ratio between the numbers of molecule for the gene of interest divided by the number of molecule for beta-actin has been calculated.
Based on the DNA microarray data the following set of transcripts was chosen for quantitative analysis by RT-PCR: adhesion receptor CD44, angiopoietin, bone morphogenetic protein 5, carbonic anhydrase II, cartilage oligomeric matrix protein, cathepsin K, osteopontin, pre-pro-alpha-2 type I collagen, Spi-B and Y-box binding protein.
A general note: Quantitative PCR measures a nucleic acid by following its amplification.

In test [2] the test system is transcript levels in several organs. The experiment in a line: In vivo gene expression profiling screen of peptides in mice (Example I). As to conditions: administration to mice. As to the method: In this EXAMPLE, 100 unknown chemically synthesized peptides are functionalized using the discovery method of the invention. Most of these peptides are present in human plasma.
As a control, twenty reference drugs are concurrently investigated with the discovery method of the invention. For this screening, one control and four treated groups of six males are treated for two weeks by daily administration by the subcutaneous route of the proteins. The reference drugs can be active for treating conditions in the areas of glaucoma, neuroprotection, neovascularisation, antiangiogenesis, acne, asthma and allergy, cardiovascular diseases, neurological disorder, pain, diabetes, hypercholesterolemia, osteoporosis and oncology.
The expectations from those selected active peptides are that (a) several potential therapeutic drugs could be identified; (b) target peptides for therapeutic antibodies could be identified; (c) new targets for research, deduced from the reconstructed biochemical pathways, could be identified; and (d) biomarkers, to be used to develop diagnostic tests could be identified. […] The protein/peptide selection rate is approximately 20%. The selection/prioritization criteria are the type of activity, the therapeutic interest and the suspected toxicity.

Setting [3] is: Effects on Osteoblasts, autocrine/paracrine regulation of osteoblast function.
Where [4] appears, read: Effects on Osteoblasts, endocrine regulation of osteoblast function.
Setting [5] is: Effects on Osteoclasts: bone resorption by osteoclast.
The mark [6] stands for this setting: Effects on Osteoclasts: osteoclast determination, survival and differentiation.
Where [7] appears, read: Extracellular matrix, collagen synthesis.

As to “Leu8, Asp10, Lysll, A1a16, G1n18, Thr33, A1a34 human PTH 1-34 [PTS893, Leu8, Asp10, Lysll, A1a16, G1n18, Thr33, A1a34 human PTH 1-34 [hPTH(1-34)]]”, in test [1] (Cell cycle), the “Organs where changes in expression were seen: Cyclin-dependent kinases 5, 6, 10” value is “B”; the “Organs where changes in expression were seen: Cyclin-dependent kinases inhibitor 1A, 1C, 2D)” value is on record as “B”; the “Organs where changes in expression were seen: Cyclins (A, A2, B1, C, D2, E2, G1, G2)” value is “B”. Further, in test [1] (setting [3]), the “Organs where changes in expression were seen: Bone Morphogenetic Proteins” value was “B”, the “Organs where changes in expression were seen: Fibroblast Growth Factors” value is reported as “B”, the “Organs where changes in expression were seen: Insulin-like Growth Factors” value was “B” and the “Organs where changes in expression were seen: TGFs” value is on record as “B”. Moreover, the “Organs where changes in expression were seen: Tob” value in test [1] (setting [3]) is “B”. Also, in test [1] (setting [4]), the “Organs where changes in expression were seen: Activin” value was “B” and the “Organs where changes in expression were seen: Retinoic receptor X” value is given as “B”. In test [1] (Effects on Osteoblasts, transcription factor that regulates collagen type 1 synthesis), the “Organs where changes in expression were seen: Y-box binding protein” value is “B”. In test [1] (setting [5]), the “Organs where changes in expression were seen: H+ ATP-ases” value was “B” and the “Organs where changes in expression were seen: ODF/OPGL: osteoprotegerin ligand” value is “B”. In test [1] (setting [6]), the “Organs where changes in expression were seen: Granulocyte to macrophage colony-stimulating factor (CSF1)” value was “B”, the “Organs where changes in expression were seen: Monocyte to macrophage differentiation associate (MMD)” value is reported as “B” and the “Organs where changes in expression were seen: PU.1 (SPI1)” value was “B”. Further, in test [1] (Extracellular matrix component), the “Organs where changes in expression were seen: Aggrecan” value was “B”, the “Organs where changes in expression were seen: Chondroitin sulphate proteoglycan” value is on record as “B”, the “Organs where changes in expression were seen: Dermatopontin” value is “B” and the “Organs where changes in expression were seen: Heparan sulphate proteoglycan” value is on record as “B”. Moreover, the “Organs where changes in expression were seen: Syndecan” value in test [1] (Extracellular matrix component) is recorded as “B”. Further, in test [1] (Extracellular matrix, cell attachment, signal transduction), the “Organs where changes in expression were seen: Integrins” value is recorded as “B”. In addition, in test [1] (setting [7]), the “Organs where changes in expression were seen: Lysyl hydroxylase” value was “B” and the “Organs where changes in expression were seen: Procollagen endopeptidase/proteinase” value is “B”. In test [1] (Signal transduction), the “Organs where changes in expression were seen: Adenylate cyclase” value is “B”, the “Organs where changes in expression were seen: CREM” value is given as “B”, the “Organs where changes in expression were seen: Calcyclin binding protein” value is recorded as “B” and the “Organs where changes in expression were seen: MAPK” value was “B”. Moreover, in test [1] (Signal transduction), the “Organs where changes in expression were seen: Phosphatidylinositol pathway” value is reported as “B”; the “Organs where changes in expression were seen: Phosphodiesterase (IB, 4A, 4B)” value is on record as “B”; the “Organs where changes in expression were seen: Phospholipase (C, D)” value was “B”; the “Organs where changes in expression were seen: SMAD pathway” value is “B”. Further, the “Organs where changes in expression were seen: STAT pathway” value in test [1] (Signal transduction) is “B”. Moreover, in test [1] (cynomolgus monkey, in vivo), the “Organs where changes in expression were seen: Amelogenin (cement component)” value is listed as “B”, the “Organs where changes in expression were seen: Dentin (mineral matrix protein)” value is given as “B” and the “Organs where changes in expression were seen: VEGF” value was “B”. In addition, the “Real Time PCR Treatment Effect: Y-box binding protein (bone) (36140_at)” value in the test on selected transcripts (bone) is “+26 % respect to control”. In addition, in the test with selected transcripts, the “Real Time PCR Treatment Effect: Spi-B (35883_at)” value is −18 % respect to control, the “Real Time PCR Treatment Effect: adhesion receptor CD44 (1372_at)” value is on record as “No change”, the “Real Time PCR Treatment Effect: angiopoietin-1 (1929_at)” value was “No change” and the “Real Time PCR Treatment Effect: bone morphogenetic protein 5 (1831_at)” value was “+18 % respect to control”. In the test with selected transcripts, the “Real Time PCR Treatment Effect: carbonic anhydrase II (40095_at)” value was “No change”, the “Real Time PCR Treatment Effect: cartilage oligomeric matrix protein (40161_at)” value is “No change”, the “Real Time PCR Treatment Effect: cathepsin K (128_at)” value is recorded as “No change” and the “Real Time PCR Treatment Effect: osteopontin (2092_s_at)” value is “No change”. For the same molecule, the “Real Time PCR Treatment Effect: pre-pro-alpha-2 type I collagen (32306_g_at)” value in the test with selected transcripts is on record as “+62 % respect to control”.

B1: FGF23CTP: unique 75-mer COOH-terminal peptide of FGF-23, SEQ ID NO: 2 (peptide, listed as Homo sapiens)
chain: HTRSAEDDSERDPLNVLKPRARMTPAPASCSQELPSAEDNSPMASDPLGVVRGGRVNTHAGGTGPEGCRPFAKFI
As for B1, the “Transcript level changes in several organs (activity)” value in test [2] is recorded as “active”.
